A word on the viability, T/C: it is the result in the treated group divided by that in the control group, in per cent. For orientation: pIC50 means the IC50 on a negative log10 scale, so that one unit is a factor of ten.

pIC50: −log10 of the molar value. Several values for one entry are separate records, joined by “and”; a condition that tells them apart may be missing. Equal entries are not always repeated.

In this assay the test system is OVCAR-5 complex spheroid (HUVEC/MSC), viability % T/C. In words: Anticancer human tumor OVCAR-5 cell line growth inhibition [Asc].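 On all read-outs here: spheroids exposed to agents for 7 days before readout.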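 On viability, T/C: 100% = DMSO vehicle-treated wells.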 As to conditions: for viability, T/C: stronger effect = lower value. Here is the method:
Multicellular complex tumor spheroid response to apoptosis pathway targeting inhibitors Alrizomadlin, Pelcitoclax, and Dasminapant in combination with a variety of drugs and investigational agents in selected tumor cell lines
The MDM2 inhibitor alrizomadlin, the Bcl-2/Bcl-xL inhibitor pelcitoclax, and the IAPs inhibitor dasminapant were evaluated both individually and in combination with standard of care and investigational anticancer small molecules within a complex spheroid model of solid tumors. . Complex spheroids include a stromal component modeled by human endothelial cells (HUVEC) and fibroblasts modeled by human mesenchymal stem cells (MSCs). The concentration ranges selected for each drug and investigational agent were based upon clinically achievable concentrations if the clinical Cmax of the agent was known.
Compounds. The drugs and investigational agents: alrizomadlin (APG-115; NSC831270), pelcitoclax (APG-1252; NSC835773), dasminapant (APG-1387;NSC834197), TAK-243 (NSC785004), copanlisib (NSC809693), olaparib (NSC753686), talazoparib (NSC767125), cobimetinib (NSC 768068), eltanexor (KPT-8602, NSC 794443), abemaciclib (NSC 768073), sotorasib (NSC818433), adagrasib (NSC 831453), MRTX-1133 (NSC 836407), Iadademestat (ORY1001, NSC 806812), and RMC-4630 (NSC839698), were obtained from the NCI Developmental Therapeutics Program Chemical Repository. The FDA-approved anticancer drug set is available from the Developmental Therapeutics Program at https://dtp.cancer.gov/organization/dscb/obtaining/available plates.htm. […] The stock solutions were prepared in dimethyl sulfoxide (DMSO, Sigma-Aldrich, St. Louis, MO, cat. D2650) at 800-fold the tested concentration and stored at -70 degrees C prior to their use. All drugs and investigational agents were tested over a range starting from a high concentration at or near the clinical Cmax and decreasing in half-log increments. If the clinical Cmax for an agent had not been determined, the highest concentration tested was 10 microM.
The patient-derived cancer (PDC) cell lines include five colon adenocarcinomas: 186277-243-T-J2-PDC, 616215-338-R-J1-PDC, 439559-082-T-J2-PDC, 463943-066-T-J2-PDC, and 519858-162-T-J1-PDC; three pancreatic carcinomas: 323965-272-R-J2-PDC, 521955-158-R6-J3-PDC, and 521955-158-R2-J5-PDC; two uterine sarcomas: 327498-152-R-J2-PDC and 993429-296-R-J1-PDC; two rhabdomyosarcomas: 755483-174-R-J1-PDC and 772245-204-R-J1-PDC; two soft tissue sarcomas: 126254-015-R-J1-PDC and 494315-158-R-J1-PDC; two malignant fibrous histiocytomas: 317291-083-R-J1-PDC and 596521-263-R-J1-PDC; two breast carcinomas: 171881-019-R-J1-PDC and 885512-296-R-J2-PDC; and one ovarian carcinoma: 6556581-035-R-J-PDC were obtained from the NCI PDMR, (https://pdmr.cancer.gov). The established cell lines HSSY-2 synovial sarcoma (RRID:CVCL 8719), SYO-1 synovial sarcoma (RRID:CVCL_7146), MPNST malignant peripheral neural sheath tumor were obtained from the Sloan Kettering Institute. The following established cell lines were purchased from the American Type Culture Collection (ATCC, Manassas, VA), Sor the received from the NCI repository:, PANC-1 pancreatic carcinoma (CRL-1469, RRID:CVCL_0480), OVCAR-5 ovarian carcinoma (RRID:CVCL_1628), OVCAR-8 ovarian carcinoma (RRID:CVCL_1629), , MCF-7 breast carcinoma (CRL-12584, RRID:CVCL_0031), MDA-MB-231 breast carcinoma (CRL-12532, RRID:CVCL_0062), NCI-H1876 small cell lung carcinoma (CRL-5902, RRID:CVCL_1503), NCI-H510A small cell lung carcinoma (HTB-184, RRID:CVCL_1565), NCI-H1417 (CRL-5869, RRID:CVCL_1469), and NCI-H196 small cell lung carcinoma (CRL-5823, RRID:CVCL_1509). Dr. Peter Houghton (Greehey Children's Cancer Research Institute, University of Texas Health Science Center, San Antonio, TX) provided Rh-18 rhabdomyosarcoma (RRID:CVCL_1659). Pooled donor human umbilical vein endothelial cells (HUVEC, Lonza, cat. CC-2519) and human mesenchymal stem cells (hMSC, Lonza, cat. PT-2501) were purchased from Lonza (Walkersville, MD).
Cell Culture. […]

The mark [1] stands for this setting: compound alone, run of 09/27/2022.

Take `C#Cc1c(F)ccc2cc(O)cc(-c3ncc4c(N5CC6CCC(C5)N6)nc(OCC56CCCN5CC(F)C6)nc4c3F)c12` (configuration not stated): the viability, T/C reads like this: (compound 0.0316 µM) 114% and 104% and 101%; (compound 0.1 µM) 112% and 100% and 106%; (compound 0.316 µM) 92.9% and 93.9% and 84.2%; (compound 1 µM) 80.5% and 88.2% and 96.8%; (compound 3.16 µM) 78.7% and 72.7% and 75%; (compound 10 µM) 40.5% and 39.1% and 39.3%. Besides, for the setting “curve of compound”, the pIC50 is 5.12 and 5.16 and 5.15.
With `C=C(F)C(=O)N1CCN(c2nc(OCC3CCCN3C)nc3c2CCN(c2cccc4cccc(Cl)c24)C3)CC1CC#N` (configuration not stated), the viability, T/C is 102% and 108% and 105% (compound 0.0316 µM); 100% and 107% and 97.9% (compound 0.1 µM); 83.5% and 91.4% and 89.7% (compound 0.316 µM); 54.5% and 60.8% and 67.8% (compound 1 µM); 10.6% and 8.67% and 19.2% (compound 3.16 µM); 0.23% and 0.22% and 0.3% (compound 10 µM). Besides, the pIC50 (curve of compound) is 5.98 and 5.92 and 5.83.
Consider `C=CC(=O)N1CCN(c2nc(=O)n(-c3c(C)ccnc3C(C)C)c3nc(-c4c(O)cccc4F)c(F)cc23)C(C)C1` (configuration not stated), for which the viability, T/C is 98.8% and 111% and 105% (compound 0.0316 µM); 103% and 112% and 98% (compound 0.1 µM); 110% and 116% and 104% (compound 0.316 µM); 122% and 114% and 107% (compound 1 µM); 120% and 115% and 111% (compound 3.16 µM); 97% and 100% and 104% (compound 10 µM). The pIC50 (curve of compound) was less than 5.00.
In the case of `CCN1C(C(=O)NC23CCC(C(=O)O)(CC2)CC3)C(c2cccc(Cl)c2F)C2(C(=O)Nc3cc(Cl)ccc32)C12CCCCC2` (configuration not stated), the viability, T/C was 101% and 109% (compound 0.00949 µM); 97.1% [middle of 15 runs] (compound 0.03 µM); 93.8% [middle of 15 runs] (compound 0.0949 µM); 95.7% [middle of 15 runs] (compound 0.3 µM); 99.8% [middle of 15 runs] (compound 0.949 µM); 103% [middle of 15 runs] (compound 3 µM). Further, the pIC50 is less than 5.52 under setting [1] and less than 5.52 (curve of compound).
Take `CCN1CCN(Cc2ccc(Nc3ncc(F)c(-c4cc(F)c5nc(C)n(C(C)C)c5c4)n3)nc2)CC1`: the viability, T/C is 96.2% and 105% and 97.1% (compound 0.00316 µM); 89% and 87.6% and 79.2% (compound 0.01 µM); 70.1% and 70.8% and 77.2% (compound 0.0316 µM); 66.8% and 66.6% and 69.3% (compound 0.1 µM); 71.2% and 64.5% and 68.4% (compound 0.316 µM); 60.4% and 55.5% and 60.6% (compound 1 µM). Also, the pIC50 (curve of compound) was less than 6.00.
`CNC(C)C(=O)NC1CN(S(=O)(=O)c2cccc(S(=O)(=O)N3CCC4CCC(C(=O)NC(c5ccccc5)c5ccccc5)N4C(=O)C(NC(=O)C(C)NC)C3)c2)CCC2CCC(C(=O)NC(c3ccccc3)c3ccccc3)N2C1=O` (configuration not stated): the viability, T/C is, setting by setting: (compound 0.00316 µM) 97.5% and 104%; (compound 0.01 µM) 95.1% [middle of 15 runs]; (compound 0.0316 µM) 83.1% [middle of 15 runs]; (compound 0.1 µM) 80.8% [middle of 15 runs]; (compound 0.316 µM) 81.5% [middle of 15 runs]; (compound 1 µM) 80.3% [middle of 15 runs]. In addition, the negative-log IC50 (pIC50) by setting is: (compound alone, run of 10/03/2022) less than 6.00; (curve of compound) less than 6.00.
For the compound `COc1c(OCCCN2CCOCC2)ccc2c3n(c(=NC(=O)c4cnc(N)nc4)nc12)CCN3`, the viability, T/C was 85% and 93% and 92.1% (compound 0.00316 µM); 76.2% and 90.5% and 80.5% (compound 0.01 µM); 49.5% and 55% and 55.8% (compound 0.0316 µM); 26.1% and 29.9% and 42% (compound 0.1 µM); 20.3% and 21.6% and 24.1% (compound 0.316 µM); 9.88% and 9.15% and 11.8% (compound 1 µM). Moreover, the pIC50 (curve of compound) is 7.49 and 7.36 and 7.26.
On to `Cc1c(S(C)(=O)=O)c(-c2cc(F)cc(N3CCN(c4ccc(NS(=O)(=O)c5ccc(NC(CCN6CCC(C(=O)OCCCP(=O)(O)O)CC6)CSc6ccccc6)c(S(=O)(=O)C(F)(F)F)c5)cc4)CC3)c2)c(-c2ccc(Cl)cc2)n1C(C)C` (configuration not stated), for which the viability, T/C by setting is: (compound 0.316 µM) 92.2% [middle of 14 runs]; (compound 1 µM) 90.3% [middle of 14 runs]; (compound 3.16 µM) 88.8% [middle of 13 runs]. Also, the negative-log IC50 (pIC50) under setting [1] is less than 5.00.
For the compound `Cc1nc(N2CCC3(CC2)COC(C)C3N)c(CO)nc1Sc1ccnc(N)c1Cl` (configuration not stated), the viability, T/C runs as follows: (compound 0.00949 µM) 109% and 97.2% and 107%; (compound 0.03 µM) 99.2% and 97.7% and 99.4%; (compound 0.0949 µM) 84.9% and 85.5% and 83.2%; (compound 0.3 µM) 84.3% and 72.2% and 87.1%; (compound 0.949 µM) 77.6% and 64.7% and 77.7%; (compound 3 µM) 62% and 60.2% and 56.3%. In addition, the negative logarithm of the IC50 (pIC50) (curve of compound) is less than 5.52.
Turning to `Cn1ncnc1[C@H]1c2n[nH]c(=O)c3cc(F)cc(c23)N[C@@H]1c1ccc(F)cc1`, the viability, T/C was 104% and 94.5% and 106% (compound 0.000316 µM); 108% (2×) and 101% (compound 0.001 µM); 99.5% and 95.4% and 93.1% (compound 0.00316 µM); 90.6% and 93.5% and 96.7% (compound 0.01 µM); 92.8% and 92.5% and 90.8% (compound 0.0316 µM); 91.8% and 88.3% and 93.8% (compound 0.1 µM). In addition, the pIC50 (curve of compound) was less than 7.00.
`NC(=O)C(=Cn1cnc(-c2cc(C(F)(F)F)cc(C(F)(F)F)c2)n1)c1cncnc1`: the viability, T/C was 102% and 107% and 95.8% (compound 0.000949 µM); 105% and 93.1% and 99.5% (compound 0.003 µM); 88.8% and 83.2% and 86.8% (compound 0.00949 µM); 89.3% and 78.8% and 86% (compound 0.03 µM); 78.5% and 71.5% and 81.5% (compound 0.0949 µM); 45.6% and 40.4% and 54.9% (compound 0.3 µM). Moreover, the pIC50 (curve of compound) is 6.58 and 6.67 and < 6.52.
`NC1CCC(NC2CC2c2ccccc2)CC1` (configuration not stated): the viability, T/C by setting is: (compound 0.000316 µM) 97.1% and 101% and 95.9%; (compound 0.001 µM) 97.4% and 108% and 97%; (compound 0.00316 µM) 89.8% and 82% and 93.5%; (compound 0.01 µM) 90.4% and 90% and 91.2%; (compound 0.0316 µM) 105% and 93.5% and 87%; (compound 0.1 µM) 90.1% and 91.9% and 91.5%. The pIC50 (curve of compound) was less than 7.00.
For `O=C(c1cc(Cc2n[nH]c(=O)c3ccccc23)ccc1F)N1CCN(C(=O)C2CC2)CC1`, the viability, T/C was 106% and 108% and 101% (compound 0.0316 µM); 98.9% and 98.3% and 106% (compound 0.1 µM); 92.3% and 94.9% and 95% (compound 0.316 µM); 96% and 91.9% and 93.1% (compound 1 µM); 93.5% and 97.9% and 94.9% (compound 3.16 µM); 76.2% and 81% and 83.6% (compound 10 µM). For the same compound, where the note is “curve of compound”, the pIC50 is less than 5.00.
Regarding `O=C(c1ccc(F)c(F)c1Nc1ccc(I)cc1F)N1CC(O)([C@@H]2CCCCN2)C1`, the viability, T/C runs as follows: (compound 0.00316 µM) 97.8% and 97.6% and 103%; (compound 0.01 µM) 96.5% and 97.5% and 102%; (compound 0.0316 µM) 69.4% and 74.8% and 72.2%; (compound 0.1 µM) 53% and 61.5% and 50.5%; (compound 0.316 µM) 44.4% and 51% and 47.7%; (compound 1 µM) 30.7% and 36% and 33.2%. For the same compound, under “curve of compound”, the pIC50 was 6.87 and 6.58 and 6.99.
